One may read the inhibition as the change of the read-out against control, counted positive when it falls. In general, MIC refers to the least concentration at which growth counts as inhibited.

Data set [1] deals with T1, Phospholipase B (Cryptococcus neoformans) (UniProt Q9P8P2).
T1 sequence (whole entry): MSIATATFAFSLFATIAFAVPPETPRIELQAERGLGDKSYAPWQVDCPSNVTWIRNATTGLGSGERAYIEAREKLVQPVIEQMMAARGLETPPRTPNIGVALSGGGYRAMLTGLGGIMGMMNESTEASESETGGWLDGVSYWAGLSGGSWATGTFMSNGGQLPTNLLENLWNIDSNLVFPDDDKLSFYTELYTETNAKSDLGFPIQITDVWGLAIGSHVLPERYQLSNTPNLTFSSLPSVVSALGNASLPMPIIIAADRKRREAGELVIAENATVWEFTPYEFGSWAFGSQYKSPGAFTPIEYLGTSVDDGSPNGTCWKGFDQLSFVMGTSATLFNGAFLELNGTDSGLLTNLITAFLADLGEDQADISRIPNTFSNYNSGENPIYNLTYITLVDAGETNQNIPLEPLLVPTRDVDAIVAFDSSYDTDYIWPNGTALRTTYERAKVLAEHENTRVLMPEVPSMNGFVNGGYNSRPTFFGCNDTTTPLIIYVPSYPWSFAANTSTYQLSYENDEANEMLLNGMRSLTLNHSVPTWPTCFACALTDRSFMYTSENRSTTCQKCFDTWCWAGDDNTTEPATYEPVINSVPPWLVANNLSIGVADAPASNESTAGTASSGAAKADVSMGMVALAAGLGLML
The data set is described as follows: Inhibition of phospholipase B activity of PLB1 in Cryptococcus neoformans var. grubii H99 assessed as loss of 1,2-di[1-14C]palmitoyl phosphatidylcholine at 250 uM.

A further data set relates to Cryptococcus neoformans. Nature of the data set: Antifungal activity against Cryptococcus neoformans ATCC 90112. The class given is functional.
The test system of a further data set is Candida albicans. Nature of the data set: Antifungal activity against Candida albicans ATCC 10231. The class given is functional.
The nature of data set [2]: Cytotoxicity against human erythrocytes assessed as hemolytic activity at 500 uM. The class given is cell-based. Conditions: erythrocyte; call rule not given here.
The test system of another data set is Aspergillus fumigatus. The data set is described as follows: Antifungal activity against Aspergillus fumigatus ATCC 204 305. The class given is functional.
A further data set deals with Aspergillus terreus. Nature of the data set: Antifungal activity against Aspergillus terreus 03-232-378. The class given is functional.
The test system of a further data set is Aspergillus flavus. Nature of the data set: Antifungal activity against Aspergillus flavus ATCC 204 304. The class given is functional.
The subject of a further data set is Scedosporium boydii. Nature of the data set: Antifungal activity against Scedosporium apiospermum 1-003-056. The class given is functional.
The next data set concerns Lomentospora prolificans. The data set is described as follows: Antifungal activity against Scedosporium prolificans 1-003-040. The class given is functional.
A further data set concerns Fusarium solani. The data set is described as follows: Antifungal activity against Fusarium solani 04-132-4207. The class given is functional.
For data set [3], the target named is T1, Phospholipase B (Cryptococcus neoformans). Nature of the data set: Inhibition of lysophospholipase activity of PLB1 in Cryptococcus neoformans var. grubii H99 assessed as loss of 1-[14C]palmitoyl lyso phosphatidylcholine at 250 uM.
The target is the same in data set [4]. The data set is described as follows: Inhibition of lysophospholipase transacylase activity of PLB1 in Cryptococcus neoformans var. grubii H99 assessed as rate of formation of 1-[14C]palmitoyl lyso phosphatidylcholine at 250 uM.
The target is the same in data set [5]. The data set is described as follows: Inhibition of phospholipase B activity of PLB1 in Cryptococcus neoformans var. grubii H99 assessed as loss of 1,2-di[1-14C]palmitoyl phosphatidylcholine at 25 uM.
The target is the same in data set [6]. The data set is described as follows: Inhibition of lysophospholipase activity of PLB1 in Cryptococcus neoformans var. grubii H99 assessed as loss of 1-[14C]palmitoyl lyso phosphatidylcholine at 25 uM.
For data set [7] the target is unchanged. Nature of the data set: Inhibition of lysophospholipase transacylase activity of PLB1 in Cryptococcus neoformans var. grubii H99 assessed as rate of formation of 1-[14C]palmitoyl lyso phosphatidylcholine at 25 uM.
The target is the same in data set [8]. The data set is described as follows: Inhibition of phospholipase B activity of PLB1 in Cryptococcus neoformans var. grubii H99 assessed as loss of 1,2-di[1-14C]palmitoyl phosphatidylcholine at 2.5 uM.
For data set [9] the target is unchanged. Nature of the data set: Inhibition of lysophospholipase activity of PLB1 in Cryptococcus neoformans var. grubii H99 assessed as loss of 1-[14C]palmitoyl lyso phosphatidylcholine at 2.5 uM.
Data set [10] has the same target. The data set is described as follows: Inhibition of lysophospholipase transacylase activity of PLB1 in Cryptococcus neoformans var. grubii H99 assessed as rate of formation of 1-[14C]palmitoyl lyso phosphatidylcholine at 2.5 uM.
For data set [11] the target is unchanged. The data set is described as follows: Inhibition of phospholipase B activity of PLB1 in Cryptococcus neoformans var. grubii H99 assessed as loss of 1,2-di[1-14C]palmitoyl phosphatidylcholine at 0.25 uM.
Data set [12] has the same target. Nature of the data set: Inhibition of lysophospholipase activity of PLB1 in Cryptococcus neoformans var. grubii H99 assessed as loss of 1-[14C]palmitoyl lyso phosphatidylcholine at 0.25 uM.
Data set [13] shares this target. The data set is described as follows: Inhibition of lysophospholipase transacylase activity of PLB1 in Cryptococcus neoformans var. grubii H99 assessed as rate of formation of 1-[14C]palmitoyl lyso phosphatidylcholine at 0.25 uM.
A short description of data set [14]: Cytotoxicity against human erythrocytes assessed as hemolytic activity at 50 uM. The class given is cell-based, Erythrocyte. The following applies: read-out: Activity.
A short description of data set [15]: Cytotoxicity against human erythrocytes assessed as hemolytic activity at 5 uM. The class given is cell-based, Erythrocyte. Conditions: read-out: Activity.

In brackets after ≈: the same amount, converted by molar mass. Where a name gives a salt, the structure may show the parent alone.

Regarding `Nc1cc[n+](CCCCCCCCCCCCCCCC[n+]2ccc(N)cc2)cc1.[Br-].[Br-]`, the inhibition in [1] is 40%. The MIC in the data set with Cryptococcus neoformans and in the data set on Candida albicans was 1.4 µM in each case. Moreover, in data set [2], the Activity entry was “Not Active”.

For the compound `[Br-].[Br-].c1cc[n+](CCCCCC[n+]2ccccc2)cc1`, the values for the MIC in the data set with Cryptococcus neoformans and against Candida albicans were above 350 µM and 175 µM, respectively. The Activity entry in data set [2] is reported as “Not Active”.

For the compound `[Br-].[Br-].c1cc[n+](CCCCCCCCCCCC[n+]2ccccc2)cc1`, the MIC against Cryptococcus neoformans worked out at 88 µM; against Candida albicans, 44 µM. Besides, the Activity entry in data set [2] is listed as “Not Active”.

Regarding `CNc1cc[n+](CCCCCCCCCCCC[n+]2ccc(NC)cc2)cc1.[Br-].[Br-]`, the MIC in the data set on Cryptococcus neoformans was found to be 2.8 µM; against Candida albicans, 1.4 µM; against Aspergillus fumigatus, 44 µM; against Aspergillus terreus, 11 µM; against Aspergillus flavus, 44 µM; in the data set with Scedosporium boydii, 2.8 µM. The results for the MIC with Lomentospora prolificans and with Fusarium solani were 2.8 µM and 44 µM, respectively. Moreover, the Activity entry in [2] is recorded as “Not Active”.

For the compound `[Br-].[Br-].c1cc[n+](CCCCCCCCCC[n+]2ccccc2)cc1`, the values for the MIC against Cryptococcus neoformans and against Candida albicans were 350 µM and 88 µM, respectively. Also, in [2], the Activity result is reported as “Not Active”.

Take `Cc1cc(N)c2ccccc2[n+]1CCCCCCCC[n+]1c(C)cc(N)c2ccccc21.[Br-].[Br-]`: the MIC with Cryptococcus neoformans and in the data set on Candida albicans was 5.5 µM throughout. Besides, in data set [2], the Activity entry is listed as “Not Active”.

For `[Cl-].[Cl-].c1ccc2c(c1)ccc[n+]2CCCCCCCCCCCC[n+]1cccc2ccccc21`, the results for the MIC in the data set on Cryptococcus neoformans and against Candida albicans were 11 µM and 22 µM, respectively. Further, the Activity entry in data set [2] is “Not Active”.

In the case of `CN(C)c1cc[n+](CCCCCCCCCCCC[n+]2ccc(N(C)C)cc2)cc1.[Br-].[Br-]`, the inhibition in data set [1] was 40%. Further, the MIC in the data set with Cryptococcus neoformans and with Candida albicans was 2.8 µM each time. Besides, the Activity entry in [2] was “Not Active”.

With `CCCCCCCCN=c1ccn(CCCCCCCCCCn2ccc(=NCCCCCCCC)cc2)cc1` [OCTENIDINE HYDROCHLORIDE], the inhibition in data set [1] is 100%; in data set [3], 97%; in data set [4] it was 97%; in data set [5], 80%; in [6], 46%; in data set [7], 43%. In addition, the inhibition in [8] was 50%; in data set [9], 16%; in data set [10], 12%; in [11] it was 0%; in data set [12], 0%; in [13], 0%. Also, the MIC against Cryptococcus neoformans amounted to 0.7 µM; in the data set on Candida albicans, 1.4 µM. Also, in data set [14], the hemolysis at 50 µM worked out at 43%. Also, the hemolysis at 5 µM in data set [15] stood at 9%.

As for `[Br-].[Br-].c1cc[n+](CCCCCCCC[n+]2ccccc2)cc1`, the MIC is above 350 µM with Cryptococcus neoformans and 175 µM in the data set on Candida albicans. In data set [2], the Activity entry was “Not Active”.

As for `C[C@@H]1[C@H](O)[C@@H](C)/C=C/C=C/C=C/C=C/C=C/C=C/C=C/[C@H](O[C@@H]2O[C@H](C)[C@@H](O)[C@H](N)[C@@H]2O)C[C@@H]2O[C@](O)(C[C@@H](O)C[C@@H](O)[C@H](O)CC[C@@H](O)C[C@@H](O)CC(=O)O[C@H]1C)C[C@H](O)[C@H]2C(=O)O` [AMPHOTERICIN B], the minimum inhibitory concentration (MIC) against Cryptococcus neoformans turned out to be 0.55 µM (≈ 0.508 µg/mL); in the data set on Candida albicans, 0.55 µM (≈ 0.508 µg/mL); against Aspergillus terreus, 1.1 µM (≈ 1.02 µg/mL); in the data set with Aspergillus flavus it was 0.55 µM (≈ 0.508 µg/mL); with Scedosporium boydii, 0.55 µM (≈ 0.508 µg/mL); against Lomentospora prolificans it was 4.4 µM (≈ 4.07 µg/mL). In addition, it took 0.28 µM (≈ 0.259 µg/mL) to inhibit growth in the data set with Fusarium solani (MIC).

Take `Br.Br.N=c1ccn(CCCCCCCCCCn2ccc(=N)cc2)cc1`: the minimal inhibitory concentration (MIC) with Cryptococcus neoformans is 22 µM; in the data set on Candida albicans it was 2.8 µM. Further, the Activity result in [2] is “Not Active”.

`Nc1cccc[n+]1CCCCCCCCCCCC[n+]1ccccc1N.[Br-].[Br-]`: in data set [1], the inhibition turned out to be 40%. In addition, the MIC in the data set on Cryptococcus neoformans and with Candida albicans was 5.5 µM throughout. In addition, the Activity entry in data set [2] was “Not Active”.

With `Cc1cc(N)c2ccccc2[n+]1CCCCCCCCCC[n+]1c(C)cc(N)c2ccccc21.[Cl-].[Cl-]` [DEQUALINIUM CHLORIDE], the MIC amounted to 11 µM against Cryptococcus neoformans and 5.5 µM in the data set on Candida albicans. In data set [2], the Activity result is on record as “Not Active”.

Take `Br.Br.N=c1ccn(CCCCCCCCCCCCn2ccc(=N)cc2)cc1`: the inhibition in data set [1] was 40%. The MIC in the data set with Cryptococcus neoformans was found to be 5.5 µM; against Candida albicans, 1.4 µM. In addition, the Activity entry in [2] was “Not Active”.

In the case of `Cc1cc(N)c2ccccc2[n+]1CCCCCCCCCCCC[n+]1c(C)cc(N)c2ccccc21.[Cl-].[Cl-]`, the MIC against Cryptococcus neoformans turned out to be 88 µM; with Candida albicans, 22 µM. In addition, the Activity result in data set [2] was “Not Active”.

`[Br-].[Br-].c1ccc2c(c1)ccc[n+]2CCCCCCCCCC[n+]1cccc2ccccc21`: the MIC in the data set on Cryptococcus neoformans and against Candida albicans was 88 µM each time. Further, the Activity entry in [2] is “Not Active”.

Source of the values: ChEMBL document CHEMBL1143035, “Synthesis, antifungal and haemolytic activity of a series of bis(pyridinium)alkanes” (Bioorg Med Chem, 2007).
